Experimental data as given in US5935776A, “Small molecule inhibition of RNA/ligand binding” (University of Massachusetts Medical Center, priority 1995, dated 1999).

System: Rev protein binding to RRE RNA probe (high affinity Rev-binding site)
Parameters: species or system HIV
Conditions: for inhibitory on Rev binding at any concentration tested: 67-nt 32P-labeled RNA probe; for inhibition of binding of Rev to the RRE (result in words): 67-nt high affinity Rev-binding site probe; for concentration at which inhibitory on Rev binding: 67-nt probe, third group of aminoglycosides
Method: Rev binds specifically to the RRE in vitro. In chemical and RNAase protection experiments, binding of Rev primarily protects nucleotides within a 66 nucleotide fragment, referred to as domain II of the RRE.
To test whether antibiotics can block binding of Rev to the RRE, a 67-nt ^32 P-labeled RNA probe containing a high affinity Rev-binding site was incubated with purified E. coli-derived Rev protein in the presence of various antibiotics. Binding of Rev to the RNA probe was quantified by an RNA gel mobility shift assay.

Row | Compound | inhibitory on Rev binding at any concentration tested | inhibition of binding of Rev to the RRE (result in words) | concentration at which inhibitory on Rev binding [μm]
1 | NC[C@@H]1O[C@H](O[C@H]2[C@@H](O)[C@H](O[C@@H]3[C@@H](O)[C@H](N)C[C@H](N)[C@H]3O[C@H]3O[C@H](CO)[C@@H](O)[C@H](O)[C@H]3N)O[C@@H]2CO)[C@H](N)[C@@H](O)[C@@H]1O [paromomycin] | no inhibitory activity at any concentration tested | completely inactive | 
2 | tunicamycin | no |  | 
3 | CNC1C(O)C(NC)C2OC3(O)C(=O)CC(C)OC3OC2C1O (stereo not drawn) [specitinomycin] | no inhibitory activity at any concentration tested | inactive | 
4 | CC1(C)S[C@@H]2[C@H](NC(=O)C(C(=O)O)c3ccccc3)C(=O)N2[C@H]1C(=O)O (stereo partly drawn) [carbenicilin] | no |  | 
5 | thiostreption | no |  | 
6 | CN[C@@H]1[C@H](O[C@H]2[C@H](O[C@H]3[C@H](O)[C@@H](O)[C@H](NC(=N)N)[C@@H](O)[C@@H]3NC(=N)N)O[C@@H](C)[C@]2(O)CO)O[C@@H](CO)[C@H](O)[C@H]1O [dihydrostreptomycin] | no inhibitory activity at any concentration tested |  | 
7 | O=C(N[C@H](CO)[C@H](O)c1ccc([N+](=O)[O-])cc1)C(Cl)Cl [chloramphenicol] | no |  | 
8 | CC1(C)S[C@@H]2[C@H](NC(=O)[C@H](N)c3ccccc3)C(=O)N2[C@H]1C(=O)O [ampicilin] | no |  | 
9 | NC[C@H]1O[C@H](O[C@H]2[C@H](O)[C@@H](O)[C@H](N)C[C@@H]2N)[C@H](N)[C@@H](O)[C@@H]1O [neamine] |  | effective in inhibiting the binding of Rev to the RRE | 100
10 | CN[C@H]1C[C@@H](N)[C@H](O)[C@@H](O[C@@H]2O[C@H](CO)[C@H](O)[C@@H]3OC4(O[C@H]23)O[C@H]([C@@H](N)CO)[C@H](O)[C@H](O)[C@H]4O)[C@@H]1O (stereo partly drawn) [hygromycin B] | no inhibitory activity at any concentration tested |  | 
11 | Cn1cc(NC(=O)c2cc(NC(=O)c3cc(NC=O)cn3C)cn2C)cc1C(=O)NCCC(=N)N [distamycin A] | no |  | 
12 | CN(C)C1C(=O)C(C(N)=O)=C(O)C2(O)C(=O)C3=C(O)c4c(O)cccc4C(C)(O)C3CC12 (stereo not drawn) [tetracycline] | no |  | 
13 | butirosin | no inhibitory activity at any concentration tested |  | 
14 | CC[C@H]1OC(=O)[C@H](C)[C@@H](O[C@H]2C[C@@](C)(OC)[C@@H](O)[C@H](C)O2)[C@H](C)[C@@H](O[C@@H]2O[C@H](C)C[C@H](N(C)C)[C@H]2O)[C@](C)(O)C[C@@H](C)C(=O)[C@H](C)[C@@H](O)[C@]1(C)O [erythromycin] | no |  | 
15 | CN[C@@H]1[C@@H](O)[C@@H](O[C@@H]2[C@@H](O)[C@H](O[C@H]3OC(CN)=CC[C@H]3N)[C@@H](N)C[C@H]2N)OC[C@]1(C)O [sisomicin] |  | effective in inhibiting the binding of Rev to the RRE | 100
16 | gentamicin C |  | effective in inhibiting the binding of Rev to the RRE | 100
17 | chromomycin A | no |  | 
18 | [H]/N=C(/N)N[C@H]1[C@H](O)[C@@H](O)[C@H](O[C@@H]2O[C@@H](C)[C@](O)(C=O)[C@H]2O[C@@H]2O[C@@H](CO)[C@H](O)[C@@H](O)[C@@H]2NC)[C@@H](N/C(N)=N\[H])[C@@H]1O [stretomycin] | no inhibitory activity at any concentration tested | inactive | 
